What was measured:
Assay in all cases: relative viability (nuclei count vs DMSO), 5 days (fraction); higher = more cells survive
Cediranib + Linsitinib = compound: COc1cc2c(Oc3ccc4[nH]c(C)cc4c3F)ncnc2cc1OCCCN1CCCC1 [Cediranib] + C[C@]1(O)C[C@@H](c2nc(-c3ccc4ccc(-c5ccccc5)nc4c3)c3c(N)nccn32)C1 [Linsitinib] (partner 1 µM)
How it was run: (§1)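 After 5 days of treatment, lung cancer cells in 1536-well plates were fixed and stained in a single step (final 0.05% Triton X-100, 1% formaldehyde, 1 ug/ml Hoechst) and their nuclei counted on 4× images. Treatment had been applied by pin tool the day after seeding as one drug alone or as a fixed anchor-drug dose with five library-drug doses (not always all listed) in √10 steps. Relative viability is the nuclei count of treated wells divided by that of vehicle wells, and values are medians of duplicate plates.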

Cediranib + AZD7762 = compound: COc1cc2c(Oc3ccc4[nH]c(C)cc4c3F)ncnc2cc1OCCCN1CCCC1 [Cediranib] + NC(=O)Nc1cc(-c2cccc(F)c2)sc1C(=O)N[C@H]1CCCNC1 [AZD7762] (partner 0.2 µM)
How it was run: as §1

Decitabine + Trametinib = compound: Nc1ncn([C@H]2C[C@H](O)[C@@H](CO)O2)c(=O)n1 [Decitabine] + CC(=O)Nc1cccc(-n2c(=O)n(C3CC3)c(=O)c3c(Nc4ccc(I)cc4F)n(C)c(=O)c(C)c32)c1 [Trametinib] (partner 0.02 µM)
How it was run: as §1

[1] = compound: O=C(C[C@H]1NCCC[C@@H]1O)Cn1cnc2cc(Br)c(Cl)cc2c1=O (racemic) [Halofuginone] + CCNC(=O)c1noc(-c2cc(C(C)C)c(O)cc2O)c1-c1ccc(CN2CCOCC2)cc1 [Luminespib] (partner 0.01 µM)
How it was run: as §1

Cell Line	relative viability (Cediranib + Linsitinib; first compound 0.04 µM)	relative viability (Cediranib + Linsitinib; first compound 0.1265 µM)	relative viability (Cediranib + Linsitinib; first compound 0.4 µM)	relative viability (Cediranib + Linsitinib; first compound 1.265 µM)	relative viability (Cediranib + Linsitinib; first compound 4 µM)	relative viability (Cediranib + AZD7762; first compound 0.04 µM)	relative viability (Cediranib + AZD7762; first compound 0.1265 µM)	relative viability (Cediranib + AZD7762; first compound 0.4 µM)	relative viability (Cediranib + AZD7762; first compound 1.265 µM)	relative viability (Cediranib + AZD7762; first compound 4 µM)	relative viability (Decitabine + Trametinib; first compound 0.04 µM)	relative viability (Decitabine + Trametinib; first compound 0.1265 µM)	relative viability (Decitabine + Trametinib; first compound 0.4 µM)	relative viability (Decitabine + Trametinib; first compound 1.265 µM)	relative viability (Decitabine + Trametinib; first compound 4 µM)	relative viability ([1]; first compound 0.001 µM)	relative viability ([1]; first compound 0.003162 µM)	relative viability ([1]; first compound 0.01 µM)	relative viability ([1]; first compound 0.03162 µM)	relative viability ([1]; first compound 0.1 µM)
LCLC-103H	1.19	1.12	1.04	1.02	1.18	0.829	1.01	0.724	0.826	0.858	0.659	0.714	0.771	0.623	0.688	0.948	1.1	0.968	0.989	0.805
NCI-H1915	1.09	1.01	1.07	1.04	1.16	0.657	0.8	0.715	0.709	0.719	0.233	0.223	0.218	0.192	0.184	0.787	0.826	0.794	0.719	0.55
NCI-H1734	0.932	0.847	0.928	0.776	1	0.679	0.952	0.446	0.42	0.629	0.595	0.575	0.404	0.313	0.333	0.198	0.199	0.224	0.233	0.187
HCC-15	0.873		0.793	0.947	1.02	1.39		1.18	1.35	1.11	0.4	0.399	0.353	0.338	0.313	0.307	0.311	0.653	0.453	0.317
NCI-H1355	0.8	0.866	0.781	0.813	0.96	0.806	1.08	0.717	0.668	0.714	0.371	0.382	0.337	0.224	0.248	0.716	0.635	0.672	0.672	0.579
LU99A	0.517		0.565	0.518	0.573	0.457		0.338	0.287	0.41	0.51	0.569	0.632	0.397	0.396	0.244	0.281	0.238	0.239	0.174
LCLC-97TM1	0.192		0.175	0.144	0.28	0.418		0.329	0.244	0.287	0.219	0.213	0.183	0.144	0.155	0.741	0.801	0.905	0.791	0.854
LC-2-ad	0.871	0.831	0.842	0.771	0.806	0.92	1.02	0.759	0.88	0.85	0.778	0.837	0.763	0.651	0.573	1.08	1	0.848	1.01	0.326
NCI-H1395	0.937		1.11	1.16	0.936	0.382	0.404	0.378	0.402	0.392	0.793	0.906	0.828	0.655	0.607	0.826	0.655	0.626	0.656	0.642
NCI-H1944	1.38	1.45	1.14	1.02	1.12	0.487	0.586	0.481	0.408	0.582	0.435	0.441	0.369	0.254	0.256	0.647	0.7	0.763	0.735	0.313
HOP-62	1.11		1.04	0.853	1.18	0.612	0.397	0.263	0.446	0.712	0.358	0.338	0.262	0.202	0.187	0.817	0.96	0.902	0.921	0.818
NCI-H2347	0.979	0.86	0.919	1	0.903	0.808	0.808	0.755	0.746	0.691	0.295	0.334	0.267	0.257	0.287	0.513	0.321	0.483	0.511	0.598
NCI-H2087	0.995	1.03	0.921	0.843	0.959	1.08	1.34	1.26	1.23	1.43	0.175	0.179	0.189	0.179	0.163	0.179	0.152	0.178	0.174	0.134
EPLC-272H	1.17		1.16	1.18	1.29	0.2		0.272	0.175	0.259	0.293	0.29		0.251	0.234	0.329	0.169	0.409	0.479	0.206
LXF-289	0.986	0.903	0.93	0.942	0.902	1.12		1.02	0.971	1.11	0.647	0.519	0.38	0.312	0.314	0.664	0.701	0.699	0.763	0.317
RERF-LC-KJ	0.909	0.862	0.869	0.871	0.907	0.92	0.411	0.881	0.725	0.923	0.808	0.885	0.558	0.594	0.636	1.47	1.27	1.22	1.25	0.887
NCI-H1755	0.997	1.06	0.967	0.972	1.03	0.423	0.617	0.375	0.43	0.425	0.653	0.743	0.688	0.564	0.488	0.469	0.41	0.392	0.565	0.445

Cell Line	relative viability (Cediranib + Linsitinib; first compound 0.04 µM)	relative viability (Cediranib + Linsitinib; first compound 0.1265 µM)	relative viability (Cediranib + Linsitinib; first compound 0.4 µM)	relative viability (Cediranib + Linsitinib; first compound 1.265 µM)	relative viability (Cediranib + Linsitinib; first compound 4 µM)	relative viability (Cediranib + AZD7762; first compound 0.04 µM)	relative viability (Cediranib + AZD7762; first compound 0.1265 µM)	relative viability (Cediranib + AZD7762; first compound 0.4 µM)	relative viability (Cediranib + AZD7762; first compound 1.265 µM)	relative viability (Cediranib + AZD7762; first compound 4 µM)	relative viability (Decitabine + Trametinib; first compound 0.04 µM)	relative viability (Decitabine + Trametinib; first compound 0.1265 µM)	relative viability (Decitabine + Trametinib; first compound 0.4 µM)	relative viability (Decitabine + Trametinib; first compound 1.265 µM)	relative viability (Decitabine + Trametinib; first compound 4 µM)	relative viability ([1]; first compound 0.001 µM)	relative viability ([1]; first compound 0.003162 µM)	relative viability ([1]; first compound 0.01 µM)	relative viability ([1]; first compound 0.03162 µM)	relative viability ([1]; first compound 0.1 µM)
PC-14	0.935	0.986	0.905	0.897	0.965	0.247	0.377	0.355	0.262	0.344	0.51	0.343	0.0811	0.146	0.128	0.152	0.161	0.183	0.184	0.104
NCI-H322M	1.01	0.997	0.879	0.856	1.09	0.621	0.671	0.495	0.424	0.565	0.508	0.453	0.6	0.457	0.486	0.944	0.855	0.915	0.719	0.318
NCI-H1666	0.865	0.903	0.729	0.885	0.877	0.868	0.757	0.907	0.767	0.894	0.785	0.873	0.713	0.783	0.836	1.01	0.968	0.996	0.958	0.783
A-427	1.17		0.984	1.07	1.17	0.816		0.685	0.659	0.707	0.594	0.677	0.461	0.394	0.401	1.08	0.934	0.913	0.818	0.733
NCI-H1651	0.888	1.11	0.991	0.95	1.04	0.437	0.527	0.471	0.314	0.524	0.787	0.757	0.692	0.622	0.487	0.7	0.797	0.802	0.65	0.427
NCI-H1793	0.903	0.935	0.747		0.968	0.521	0.492	0.418	0.329	0.394	0.399	0.407	0.463	0.339	0.35	0.181	0.191	0.172	0.211	0.161
201T	1.11	1.18	0.941	1.01	0.974	0.705	0.445	0.607	0.521	0.618	0.739	0.721	0.773		0.708	1.06	1.04	1.03	1.08	0.866
NCI-H460	0.86	0.757	0.702	0.727	0.676	0.727	0.679	0.584	0.574	0.616	0.173	0.229	0.214	0.109	0.13	0.0339	0.0272	0.0348	0.0271	0.0193
NCI-H596	1.16	1.07	1.11	1.05	1.09	1.21	1.31	0.853	0.969	1.2	0.881	0.744	0.509	0.575	0.542	1.02	1.23	1.06	0.941	0.324
HARA	0.916	1.14	0.96	0.955	0.975	0.35	0.279	0.234	0.267	0.251	0.285	0.454	0.491	0.228	0.304	0.311	0.786	0.635	0.679	0.429
NCI-H2126	0.769	0.708	0.683	0.592	0.722	0.985	1.08	1.01	0.87	1.05	0.576	0.545	0.474	0.422	0.44	0.901	0.92	0.928	0.914	0.675
HCC-827	1.02		0.945	0.949	0.991	0.226	0.455	0.193	0.163	0.198	0.222	0.378	0.322	0.257	0.344	0.453	0.473	0.478	0.705	0.504
NCI-H650	0.792	0.681	0.807	0.706	0.964	0.879	0.654	0.953	0.944	1.13	0.717	0.561	0.418	0.319	0.259	0.793	0.738	0.822	0.667	0.59
BEN	1.16	0.799	0.82	0.9	0.647	0.772	0.587	0.649	0.517	0.696	1.1	0.947	0.772	0.558	0.622	0.203	0.348	0.45	0.322	0.14
NCI-H23	0.698		0.542	0.442	0.682	0.222	0.383	0.246	0.331	0.286	0.344	0.365	0.238	0.191	0.255	0.213	0.184	0.203	0.203	0.231
NCI-H1975	1.1	1.16	1	0.955	0.928	0.687	0.73	0.782	0.799	0.602	0.284	0.272	0.219	0.233	0.219	0.24	0.215	0.272	0.241	0.183
